According to the NIST ThermoML archive (doi:10.1016/j.jct.2012.08.010):

Experiment: refractive index (Na D-line) (dimensionless); φn = volume fraction of the nth substance listed
Details: 101 kPa, Liquid, Standard Abbe refractometry

C=C[Si]1(C)O[Si](C)(C=C)O[Si](C)(C=C)O[Si](C)(C=C)O1 (stereo not given) [2,4,6,8-tetramethyl-2,4,6,8-tetravinylcycloterasiloxane] + Cc1ccccc1C
Details | refractive index
288.15 K, φ1 = 0.1323 | 1.49868
288.15 K, φ1 = 0.2522 | 1.49036
288.15 K, φ1 = 0.3383 | 1.4844
288.15 K, φ1 = 0.4201 | 1.47866
288.15 K, φ1 = 0.4909 | 1.47364
288.15 K, φ1 = 0.5559 | 1.46898
288.15 K, φ1 = 0.6028 | 1.4657
288.15 K, φ1 = 0.6571 | 1.46179
288.15 K, φ1 = 0.7017 | 1.45858
288.15 K, φ1 = 0.7422 | 1.4556
288.15 K, φ1 = 0.7787 | 1.45298
288.15 K, φ1 = 0.8113 | 1.45065
288.15 K, φ1 = 0.842 | 1.44839
288.15 K, φ1 = 0.8679 | 1.44648
288.15 K, φ1 = 0.8958 | 1.44445
288.15 K, φ1 = 0.9198 | 1.44269
288.15 K, φ1 = 0.942 | 1.44102
288.15 K, φ1 = 0.9794 | 1.43827
288.15 K, φ1 = 1 | 1.43674
298.15 K, φ1 = 0.1324 | 1.49359
298.15 K, φ1 = 0.2524 | 1.48535
298.15 K, φ1 = 0.3385 | 1.47939
298.15 K, φ1 = 0.4203 | 1.4737
298.15 K, φ1 = 0.4911 | 1.46872
298.15 K, φ1 = 0.5561 | 1.46412
298.15 K, φ1 = 0.603 | 1.46081
298.15 K, φ1 = 0.6573 | 1.45693
298.15 K, φ1 = 0.7019 | 1.45375
298.15 K, φ1 = 0.7423 | 1.45081
298.15 K, φ1 = 0.7788 | 1.44819
298.15 K, φ1 = 0.8114 | 1.44585
298.15 K, φ1 = 0.8421 | 1.4436
298.15 K, φ1 = 0.868 | 1.44172
298.15 K, φ1 = 0.8958 | 1.43977
298.15 K, φ1 = 0.9199 | 1.43795
298.15 K, φ1 = 0.9421 | 1.4363
298.15 K, φ1 = 0.9794 | 1.43354
298.15 K, φ1 = 1 | 1.43202
308.15 K, φ1 = 0.1325 | 1.48836
308.15 K, φ1 = 0.2526 | 1.48017
308.15 K, φ1 = 0.3387 | 1.47425
308.15 K, φ1 = 0.4205 | 1.46859
308.15 K, φ1 = 0.4913 | 1.46366
308.15 K, φ1 = 0.5563 | 1.45909
308.15 K, φ1 = 0.6032 | 1.45581
308.15 K, φ1 = 0.6575 | 1.45196
308.15 K, φ1 = 0.7021 | 1.44881
308.15 K, φ1 = 0.7425 | 1.4459
308.15 K, φ1 = 0.779 | 1.44332
308.15 K, φ1 = 0.8116 | 1.441
308.15 K, φ1 = 0.8422 | 1.43878
308.15 K, φ1 = 0.8681 | 1.43691
308.15 K, φ1 = 0.8959 | 1.43489
308.15 K, φ1 = 0.9199 | 1.43317
308.15 K, φ1 = 0.9421 | 1.43154
308.15 K, φ1 = 0.9794 | 1.42881
308.15 K, φ1 = 1 | 1.4273
318.15 K, φ1 = 0.1326 | 1.48315
318.15 K, φ1 = 0.2527 | 1.47503
318.15 K, φ1 = 0.3389 | 1.46915
318.15 K, φ1 = 0.4207 | 1.46354
318.15 K, φ1 = 0.4915 | 1.45862
318.15 K, φ1 = 0.5565 | 1.45412
318.15 K, φ1 = 0.6034 | 1.45086
318.15 K, φ1 = 0.6577 | 1.44704
318.15 K, φ1 = 0.7022 | 1.44393
318.15 K, φ1 = 0.7426 | 1.44105
318.15 K, φ1 = 0.7791 | 1.43846
318.15 K, φ1 = 0.8117 | 1.4362
318.15 K, φ1 = 0.8423 | 1.43396
318.15 K, φ1 = 0.8682 | 1.43215
318.15 K, φ1 = 0.896 | 1.43012
318.15 K, φ1 = 0.92 | 1.4284
318.15 K, φ1 = 0.9421 | 1.42678
318.15 K, φ1 = 0.9794 | 1.42407
318.15 K, φ1 = 1 | 1.42257
328.15 K, φ1 = 0.1326 | 1.4779
328.15 K, φ1 = 0.2528 | 1.46957
328.15 K, φ1 = 0.339 | 1.46397
328.15 K, φ1 = 0.4208 | 1.45836
328.15 K, φ1 = 0.4916 | 1.45349
328.15 K, φ1 = 0.5567 | 1.44897
328.15 K, φ1 = 0.6035 | 1.44567
328.15 K, φ1 = 0.6578 | 1.44199
328.15 K, φ1 = 0.7023 | 1.43887
328.15 K, φ1 = 0.7427 | 1.43597
328.15 K, φ1 = 0.7792 | 1.43343
328.15 K, φ1 = 0.8118 | 1.43123
328.15 K, φ1 = 0.8423 | 1.42902
328.15 K, φ1 = 0.8683 | 1.42718
328.15 K, φ1 = 0.896 | 1.42526
328.15 K, φ1 = 0.92 | 1.42355
328.15 K, φ1 = 0.9422 | 1.42195
328.15 K, φ1 = 0.9794 | 1.41933
328.15 K, φ1 = 1 | 1.41785
